Test results published in article PMC6518372, “An enzymatically stable GIP/xenin hybrid peptide restores GIP sensitivity, enhances beta cell function and improves glucose homeostasis in high-fat-fed mice” (Diabetologia, 2016).
Where a SMILES comes first, the peptide text is derived from it. [ ]: non-standard residue; d: D form.

Experiments:
purified porcine DPP-4 = purified porcine DPP-4 (Sus scrofa, UniProt P22411); assay: DPP-4 degradation / in vitro DPP-4 half-life; conditions: 20 μg peptide, 5 mU purified DPP-4, up to 12 h, HPLC
Chain of purified porcine DPP-4 (P22411 whole entry): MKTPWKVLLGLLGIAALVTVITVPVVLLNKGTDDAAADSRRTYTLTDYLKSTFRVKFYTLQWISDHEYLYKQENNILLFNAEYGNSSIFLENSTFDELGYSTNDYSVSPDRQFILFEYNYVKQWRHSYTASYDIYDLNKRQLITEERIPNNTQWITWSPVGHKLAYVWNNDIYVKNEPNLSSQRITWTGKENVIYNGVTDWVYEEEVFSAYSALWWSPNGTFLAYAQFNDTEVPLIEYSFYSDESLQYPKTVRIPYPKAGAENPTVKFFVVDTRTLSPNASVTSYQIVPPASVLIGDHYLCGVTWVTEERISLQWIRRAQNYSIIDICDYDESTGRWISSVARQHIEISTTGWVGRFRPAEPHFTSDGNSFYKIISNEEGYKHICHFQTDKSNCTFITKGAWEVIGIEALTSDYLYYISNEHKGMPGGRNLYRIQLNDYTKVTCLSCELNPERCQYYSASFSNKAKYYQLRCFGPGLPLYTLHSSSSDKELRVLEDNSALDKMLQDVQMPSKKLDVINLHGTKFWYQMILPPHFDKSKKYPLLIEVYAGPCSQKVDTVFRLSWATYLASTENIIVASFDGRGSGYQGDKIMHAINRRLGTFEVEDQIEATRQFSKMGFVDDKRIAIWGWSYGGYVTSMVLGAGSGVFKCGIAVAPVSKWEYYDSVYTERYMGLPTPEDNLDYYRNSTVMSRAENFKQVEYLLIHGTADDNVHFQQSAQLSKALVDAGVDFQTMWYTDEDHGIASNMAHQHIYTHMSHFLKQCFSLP
Description: Peptide (20 μg) DPP-4 degradation profiles (5 μl purified DPP-4, 5 mU; Sigma-Aldrich, UK) were assessed as described previously.
For calculation of experimental molecular masses, peptide samples (1 µg) were mixed with α-cyano-4-hydroxycinnamic acid (1 µg) and applied to a Voyager-DE BioSpectrometry Workstation and mass-to-charge (m/z) ratio verses peak intensity recorded by MALDI-TOF mass spectrometry. DPP-4 half-life was assessed by incubating peptides (37°C in 50 mmol/L TEA-HCl; pH 7.8) with 5 mU purified porcine DPP-4 for 0, 1, 2, 4, 8 and 12 h. Degradation profiles were obtained using rp-HPLC analysis and HPLC peak area data used to calculate percentage intact peptide remaining at each time point.

BRIN-BD11 cells [1] = assay: In vitro insulin secretion from BRIN-BD11 cells; assay type: cell-based, rat; conditions: peptide 10^−6 mol/l, antagonist 10^−6 mol/l, 5.6 mmol/l glucose, 20 min
Description: (§1) BRIN-BD11 cells were used to assess the insulin-releasing activity of test peptides, as described previously. This hybrid cell line (ECACC 10033003) was originally generated in-house by electrofusion of a primary culture of New England Deaconess Hospital (NEDH) rat pancreatic islets with RINm5F (a cell line derived from an NEDH rat insulinoma), and has been mycoplasma eradicated. For details of experimental conditions please see ESM Methods. Insulin was measured by radioimmunoassay. We assessed the impact of GIP and neurotensin receptors on (DAla^2)GIP/xenin-8-Gln-induced insulin secretion in BRIN-BD11 cells. Cells were incubated in 5.6 mmol/l glucose with (DAla^2)GIP/xenin-8-Gln (10^−6 mol/l) alone or in combination with the GIP receptor antagonist GIP(6-30)Cex-K^40[Pal] [32] (where Pal is palmitate) or the neurotensin receptor antagonist SR142948A (Sigma, Poole, UK), and insulin secretion determined as described above. In addition, to determine mechanisms, intracellular Ca^2+ was also measured in BRIN-BD11 cells following treatment with test peptides (10^−6 mol/l), using a Flexstation scanning fluorometer (FLIPR Calcium 5 assay kit; Molecular Devices, Sunnyvale, CA, USA), as described previously.
In vitro insulin release studies Cells were seeded at a density of 150,000 cells/well in 24-well plates (Nunc, Roskilde, Denmark) and allowed to attach overnight at 37 °C. Culture medium was removed and cells were pre-incubated in Krebs–Ringer bicarbonate buffer (containing 0.5% (w/v) BSA, pH 7.4) supplemented with 1.1 mmol/l glucose for 40 min at 37 °C. Following the pre-incubation, experiments (n=8) were performed in presence of glucose (5.6 or 16.7 mmol/l) with a […]
incubations, aliquots of assay buffer were collected from each well and stored at -20 °C prior to […]
Acute in vivo effects in lean mice For food intake studies, fasted (18 h) mice were given intraperitoneal (i.p) injections of peptides at a dose of 25, 100 or 250 nmol/kg bw. Mice were then allowed free access to normal chow for 180 mins and cumulative food intake measured. […]

lean control mice [2] = assay: Acute cumulative food intake in lean mice; assay type: in vivo, mouse; conditions: 250 nmol/kg i.p., 18 h fasted lean mice, 120 min post injection, vs saline
Description: (§2) Animals Acute animal studies were conducted in male NIH Swiss mice (12-14 weeks old, Harlan Ltd, UK) maintained on a standard rodent maintenance diet (10% fat, 30% protein and 60% carbohydrate, Trouw Nutrition, UK). Prior to commencement of longer term studies, all animals, except lean controls that continued on rodent maintenance diet, were maintained on a high-fat diet (45% fat, 35% carbohydrate and 20% protein, Special Diet Services, UK) for 12 weeks. This diet […]
(§3) individually in an air-conditioned room at 22 ± 2 °C with a 12 h light:12 h dark cycle and had free access to food and water. Animal experiments were carried out in accordance with the UK Animals (Scientific Procedures) Act 1986.
(§4) Acute in vivo effects in lean mice For food intake studies, fasted (18 h) mice were given intraperitoneal (i.p) injections of peptides at a dose of 25, 100 or 250 nmol/kg bw. Mice were then allowed free access to normal chow for 180 mins and cumulative food intake measured. For glucose homeostasis and […]

lean control mice [3] = assay: Acute glucose-lowering and insulin-releasing effects in lean mice; assay type: in vivo, mouse; conditions: 25 nmol/kg i.p. with glucose 18 mmol/kg, non-fasted lean mice, vs glucose alone
Description: Specific information on acute feeding, glucose homeostasis and insulin-secretory studies is given in ESM Methods. To assess the impact of GIP and neurotensin receptor activation on (DAla^2)GIP/xenin-8-Gln-induced glucose-lowering and insulin-secretory actions in mice, (DAla^2)GIP/xenin-8-Gln was administered by i.p. injection (25 nmol/kg body weight) in combination with glucose (18 mmol/kg) in the absence and presence of GIP(6-30)Cex-K^40[Pal] and SR142948A (both at 25 nmol/kg), and glucose and insulin were measured as described above. In a final series of experiments, test peptides (25 nmol/kg) or saline vehicle (0.9% wt/vol. NaCl) were injected 4 h before a glucose load (18 mmol/kg) in non-fasted mice and blood glucose and plasma insulin measured as above. […]
as §2, §3, §4

lean control mice [4] = assay: Persistent glucose-lowering and insulin-releasing effects, peptide 4 h before glucose load; assay type: in vivo, mouse; conditions: 25 nmol/kg injected 4 h before i.p. glucose load 18 mmol/kg, non-fasted lean mice, vs saline
Description: Specific information on acute feeding, glucose homeostasis and insulin-secretory studies is given in ESM Methods. To assess the impact of GIP and neurotensin receptor activation on (DAla^2)GIP/xenin-8-Gln-induced glucose-lowering and insulin-secretory actions in mice, (DAla^2)GIP/xenin-8-Gln was administered by i.p. injection (25 nmol/kg body weight) in combination with glucose (18 mmol/kg) in the absence and presence of GIP(6-30)Cex-K^40[Pal] and SR142948A (both at 25 nmol/kg), and glucose and insulin were measured as described above. In a final series of experiments, test peptides (25 nmol/kg) or saline vehicle (0.9% wt/vol. NaCl) were injected 4 h before a glucose load (18 mmol/kg) in non-fasted mice and blood glucose and plasma insulin measured as above.

BRIN-BD11 cells [5] = assay: Intracellular Ca2+ in BRIN-BD11 cells (FLIPR Calcium 5); assay type: cell-based, rat; conditions: peptide 10^−6 mol/l, 5.6 mmol/l glucose, 5 min, AUC 0–300 s
Description: as §1

Structure (SMILES) | Stability when incubated in the presence of DPP-4 (purified porcine DPP-4) | Peptide-mediated insulin secretion in presence of neurotensin receptor antagonist SR142948A (BRIN-BD11 cells [1]) | Cumulative food intake (lean control mice [2]) | Blood glucose (lean control mice [3]; 30 min post injection) | Overall AUC blood glucose (lean control mice [3]) | Overall AUC for blood glucose after glucose challenge (lean control mice [4]) | Plasma insulin AUC after glucose challenge (lean control mice [4]) | Effect on intracellular Ca^2+ concentrations (BRIN-BD11 cells [5])
CC[C@H](C)[C@H](NC(=O)[C@H](CO)NC(=O)[C@H](Cc1ccc(O)cc1)NC(=O)[C@H](CC(=O)O)NC(=O)[C@H](CO)NC(=O)[C@@H](NC(=O)[C@H](Cc1ccccc1)NC(=O)[C@@H](NC(=O)CNC(=O)[C@H](CCC(=O)O)NC(=O)[C@@H](C)NC(=O)[C@@H](N)Cc1ccc(O)cc1)[C@@H](C)O)[C@@H](C)CC)C(=O)N[C@@H](C)C(=O)N[C@@H](CCSC)C(=O)N[C@@H](Cc1c[nH]cn1)C(=O)N1CCC[C@H]1C(=O)N[C@@H](CCC(N)=O)C(=O)N[C@@H](CCC(N)=O)C(=O)N1CCC[C@H]1C(=O)N[C@@H](Cc1c[nH]c2ccccc12)C(=O)N[C@H](C(=O)N[C@@H](CC(C)C)C(=O)O)[C@@H](C)CC [(DAla^2)GIP/xenin-8-Gln] (H-Y[dA]EGTFISDYSIAMHPQQPWIL-OH) | remained fully intact |  |  |  |  |  |  | 
CC[C@H](C)[C@H](NC(=O)[C@H](Cc1c[nH]c2ccccc12)NC(=O)[C@@H]1CCCN1C(=O)[C@H](CCC(N)=O)NC(=O)[C@H](CCC(N)=O)NC(=O)[C@@H]1CCCN1C(=O)[C@@H](N)Cc1c[nH]cn1)C(=O)N[C@@H](CC(C)C)C(=O)O [xenin-8-Gln] (H-HPQQPWIL-OH) |  | similar, but less prominent, effect | significant (p < 0.05) reductions in food intake | significantly (p < 0.05) lowered blood glucose values | significantly (p < 0.05) decreased overall AUC blood glucose values | devoid of glucose-lowering or insulin-releasing effects | devoid of glucose-lowering or insulin-releasing effects | Neither, (DAla^2)GIP, xenin-8-Gln nor (DAla^2)GIP/xenin-8-Gln had any effect
